Assay results from paper PMC11602115 (Journal of Medicinal Chemistry, 2017).

Assays:
[1] = Metabolite profile of 5c in the rat; assay type: in vivo; conditions: in vivo following dosing of 5g
Source text: A taurine-conjugated metabolite was subsequently identified in bile (M1, Figure 4), which was also observed in circulating plasma, although at much lower concentrations (∼5%) compared to parent. Further, two oxidized products, one of which was also a taurine-conjugate, were identified (M2 and M3) in plasma. […] It is known that taurine can be conjugated to bile acids and these conjugates may be hydrolyzed in the gut which allows for bile acid reabsorbtion.[19]

Mouse PK (iv and oral) = assay type: in vivo, male CD-1 mice
Dog PK (iv and oral) = assay type: in vivo, Beagle dogs
Monkey PK (iv and oral) = assay type: in vivo, cynomolgus monkeys
[2] = iv PK in bile-duct cannulated (BDC) versus normal rats; assay type: in vivo, rat; conditions: iv administration
Source text: One explanation for the prolonged exposure was the possibility of enterohepatic recirculation. […] A more definitive study was therefore conducted in bile-duct cannulated (BDC) rats.

With O=C(O)COC[C@H]1CC[C@H](COC(=O)N(c2ccccc2)c2cccc(F)c2)CC1 [5g, 2-(((1r,4r)-4-(((3-Fluorophenyl)(phenyl)carbamoyloxy)methyl)cyclohexyl)methoxy)acetic Acid] the “taurine conjugate metabolite in vivo” value [1] was “no analogous conjugate was observed”.
In the case of O=C(O)COC[C@H]1CC[C@H](COC(=O)N(c2ccccc2)c2ccc(Cl)cc2)CC1 [5c, Sodium 2-(((1r,4r)-4-(((4-Chlorophenyl)(phenyl)carbamoyloxy)methyl)cyclohexyl)methoxy)acetate], the T1/2 (Mouse PK (iv and oral); iv […]) is reported as 5.59 h, the “AUC0–inf” value (Mouse PK (iv and oral); po 9.49 mg/kg) is reported as 11.5 µg·h/mL and the Cmax (Mouse PK (iv and oral); po 9.49 mg/kg) is reported as 4.94 µg/mL. It also gave an F (Mouse PK (iv and oral); po 9.49 mg/kg) of 83.4%, a T1/2 (Mouse PK (iv and oral); po 9.49 mg/kg) of 8.08 h and a Tmax (Mouse PK (iv and oral); po 9.49 mg/kg) of 0.250 h. The half-life (Dog PK (iv and oral); beagle, plasma, oral, 0.2 mg/kg, read-out: elimination half-life in dog (converted)) was 10 h, the “AUC0–inf” value (Dog PK (iv and oral); iv 0.2 mg/kg) was 1.05 ± 0.30 µg·h/mL and the Clobs (Dog PK (iv and oral); iv 0.2 mg/kg) was 0.202 ± 0.057 L h^–1 kg^–1. The T1/2 (Dog PK (iv and oral); iv 0.2 mg/kg) was 3.54 ± 0.42 h, the “AUC0–inf” value (Dog PK (iv and oral); po 0.2 mg/kg) was 0.719 ± 0.290 µg·h/mL and the Cmax (Dog PK (iv and oral); po 0.2 mg/kg) was 0.327 ± 0.016 µg/mL. The F (Dog PK (iv and oral); po 0.2 mg/kg) was 68.4%, the T1/2 (Dog PK (iv and oral); po 0.2 mg/kg) was 9.79 ± 0.94 h and the Tmax (Dog PK (iv and oral); po 0.2 mg/kg) was 0.417 ± 0.144 h. For the same molecule, the “AUC0–inf” value (Dog PK (iv and oral); po 2 mg/kg) was 9.75 ± 5.27 µg·h/mL, the Cmax (Dog PK (iv and oral); po 2 mg/kg) was 3.44 ± 0.90 µg/mL and the F (Dog PK (iv and oral); po 2 mg/kg) was 92.9%. For the same molecule, the T1/2 (Dog PK (iv and oral); po 2 mg/kg) was 5.53 ± 1.48 h, the Tmax (Dog PK (iv and oral); po 2 mg/kg) was 0.833 ± 0.289 h and the half-life (Monkey PK (iv and oral); cynomolgus monkey, plasma, oral, 0.1 mg/kg, read-out: elimination half-life in monkey (converted)) was 18 h. The “AUC0–inf” value (Monkey PK (iv and oral); monkey, iv 0.1 mg/kg) was 0.145 ± 0.095 µg·h/mL, the Clobs (Monkey PK (iv and oral); monkey, iv 0.1 mg/kg) was 0.881 ± 0.579 L h^–1 kg^–1 and the T1/2 (Monkey PK (iv and oral); monkey, iv 0.1 mg/kg) was 24.2 ± 2.1 h. The “AUC0–inf” value (Monkey PK (iv and oral); monkey, po 0.1 mg/kg) was 0.161 ± 0.116 µg·h/mL, the Cmax (Monkey PK (iv and oral); monkey, po 0.1 mg/kg) was 0.0121 ± 0.0036 µg/mL and the F (Monkey PK (iv and oral); monkey, po 0.1 mg/kg) was 98.7%. The T1/2 (Monkey PK (iv and oral); monkey, po 0.1 mg/kg) was 17.5 ± 3.4 h, the Tmax (Monkey PK (iv and oral); monkey, po 0.1 mg/kg) was 2.67 ± 2.89 h and the “AUC0–inf” value (Monkey PK (iv and oral); monkey, po 0.5 mg/kg) was 2.90 ± 1.35 µg·h/mL. It also gave a Cmax (Monkey PK (iv and oral); monkey, po 0.5 mg/kg) of 0.0928 ± 0.0297 µg/mL, an F (Monkey PK (iv and oral); monkey, po 0.5 mg/kg) greater than 100% and a T1/2 (Monkey PK (iv and oral); monkey, po 0.5 mg/kg) of 38.7 ± 21.3 h. The Tmax (Monkey PK (iv and oral); monkey, po 0.5 mg/kg) was 4.17 ± 3.18 h, the “reduction in the apparent plasma half-life in BDC rats” value ([2]; BDC versus normal rats) was 3 fold and the “concentrations in bile and urine compared to plasma” value ([2]; rat) was “negligible”.
